Results: PubChem BioAssay (NCI)
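Compound exposure: 48 hours, 5 concentrations, 96-well plates. TGI marks complete inhibition of growth.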

Tests used:
Assay in all cases: NCI tumour cell line growth inhibition, 48 h
786-0 renal = tested on: 786-0 renal
SR leukemia = tested on: SR leukemia
KM20L2 colon = tested on: KM20L2 colon
XF 498 CNS = tested on: XF 498 CNS
SK-MEL-5 melanoma = tested on: SK-MEL-5 melanoma
SF-295 CNS = tested on: SF-295 CNS
U251 CNS = tested on: U251 CNS
OVCAR-8 ovarian = tested on: OVCAR-8 ovarian
RPMI-8226 leukemia = tested on: RPMI-8226 leukemia
HT29 colon = tested on: HT29 colon
OVCAR-4 ovarian = tested on: OVCAR-4 ovarian
HCC-2998 colon = tested on: HCC-2998 colon
UACC-257 melanoma = tested on: UACC-257 melanoma
NCI-H460 lung = tested on: NCI-H460 lung
LXFL 529 NSCLC = tested on: LXFL 529 NSCLC
SNB-75 CNS = tested on: SNB-75 CNS
HL-60(TB) leukemia = tested on: HL-60(TB) leukemia
OVCAR-3 ovarian = tested on: OVCAR-3 ovarian
SK-MEL-28 melanoma = tested on: SK-MEL-28 melanoma
NCI-H23 lung = tested on: NCI-H23 lung
SNB-19 CNS = tested on: SNB-19 CNS
MOLT-4 leukemia = tested on: MOLT-4 leukemia
RXF 393 renal = tested on: RXF 393 renal
HCT-116 colon = tested on: HCT-116 colon
SF-539 CNS = tested on: SF-539 CNS
DMS 273 small cell lung = tested on: DMS 273 small cell lung
LOX IMVI melanoma = tested on: LOX IMVI melanoma
HOP-62 NSCLC = tested on: HOP-62 NSCLC
NCI-H226 lung = tested on: NCI-H226 lung
CCRF-CEM leukemia = tested on: CCRF-CEM leukemia
A549 NSCLC = tested on: A549 NSCLC
COLO 205 colon = tested on: COLO 205 colon
IGROV1 ovarian = tested on: IGROV1 ovarian
M14 melanoma = tested on: M14 melanoma
SW-620 colon = tested on: SW-620 colon
M19-MEL melanoma = tested on: M19-MEL melanoma
KM12 colon = tested on: KM12 colon
DLD-1 colon = tested on: DLD-1 colon
UO-31 renal = tested on: UO-31 renal
SNB-78 CNS = tested on: SNB-78 CNS
ACHN renal = tested on: ACHN renal
DMS 114 small cell lung = tested on: DMS 114 small cell lung
TK-10 renal = tested on: TK-10 renal
EKVX NSCLC = tested on: EKVX NSCLC
SK-OV-3 ovarian = tested on: SK-OV-3 ovarian
SF-268 CNS = tested on: SF-268 CNS
HCT-15 colon = tested on: HCT-15 colon
SN12C renal = tested on: SN12C renal
UACC-62 melanoma = tested on: UACC-62 melanoma
OVCAR-5 ovarian = tested on: OVCAR-5 ovarian
K-562 leukemia = tested on: K-562 leukemia
NCI-H522 lung = tested on: NCI-H522 lung
RXF-631 renal = tested on: RXF-631 renal
MALME-3M melanoma = tested on: MALME-3M melanoma
SK-MEL-2 melanoma = tested on: SK-MEL-2 melanoma
CAKI-1 renal = tested on: CAKI-1 renal
HOP-92 NSCLC = tested on: HOP-92 NSCLC
A498 renal = tested on: A498 renal
HOP-18 NSCLC = tested on: HOP-18 NSCLC

Measured: TGI

NC(=O)NC1=NC(Cc2ccccc2)C(=O)N1Cc1ccccc1 (centres undefined)
not listed: NCI-H522 lung | RXF-631 renal | MALME-3M melanoma | SK-MEL-2 melanoma | CAKI-1 renal | HOP-92 NSCLC | A498 renal | HOP-18 NSCLC
> 100 µM: all other assays above

COC(=O)C(Cc1ccccc1)NC(=O)Cn1ccnc1[N+](=O)[O-] (centres undefined)
not listed: SR leukemia | HCC-2998 colon | OVCAR-3 ovarian | HCT-116 colon | DLD-1 colon | SNB-78 CNS
> 100 µM: all other assays above
